In ChEMBL document CHEMBL3507680, “University of Dundee, Gates Library screen for HepG2 cell viability”:

Assay: Human HepG2 cell viability assay in 384 well format
Format: toxicity, cell-based
Set-up: dose 125 nL, time 70.5 hour; cytotoxicity at 70.5 h: concentration not given beside the values
Conditions: HepG2 cells, read-out: Inhibition

Row | Compound | cytotoxicity at 70.5 h [%]
1 | Cc1nc(CN(Cc2cccs2)C2CCS(=O)(=O)C2)oc1C (centres undefined) | -16
2 | CCc1cnc(N2CCOC(CCOC)C2)nc1 (centres undefined) | -13.5
3 | O=C(NCCCO)c1nnsc1-c1ccc(Cl)cc1 | -13.1
4 | CCCn1nccc1-c1cc(C2CCN(S(C)(=O)=O)CC2)nc(C)n1 | -6.18
5 | COc1cn(CC(=O)N2CCC(c3ccccc3)CC2)c(C)cc1=O | 23.7
6 | c1ccc(-c2n[nH]c(CCNc3nnc(C4CCC4)o3)n2)cc1 | -7.22
7 | CS(=O)(=O)N1C[C@H]2CCCN(Cc3cccs3)[C@H]2C1 | 6.54
8 | CS(=O)(=O)c1ccc(CN2C[C@H]3CC[C@@H]2CN(c2ncccn2)C3)cc1 | -5.94
9 | Cc1nc(C)n(CC2CCCCN2CCCC#N)n1 (centres undefined) | 6.75
10 | CC(C)C(=O)Nc1ncn(Cc2cccc(Br)c2)n1 | -9.36
11 | Cn1cc(CNC2CCOCC2)c(-c2cc3ccccc3o2)n1 | -5.58
12 | Cc1cccc(NC(=O)NCC2(N3CCOCC3)CCSC2)c1 (centres undefined) | 3.35
13 | CNc1ncc(CN(C)C(=O)c2cccc(Cn3cccn3)c2)cn1 | -6.97
14 | CCC(CC)c1cc(CNC(=O)N2CCOC(C)C2)on1 (centres undefined) | -9.44
15 | Cc1ccc(S(C)(=O)=O)cc1C(=O)NS(=O)(=O)c1ccc(Cl)cc1 | -4.48
16 | Cc1nc(CC(=O)N2CCC(c3nn(C)c4ncccc34)CC2)cs1 | -9.42
17 | CNS(=O)(=O)CC(=O)N1CCC(c2ccc(F)c(F)c2)CC1 | 0.695
18 | CC(=O)Nc1ccc([C@@H](O)[C@H]2COCC(=O)N2CC(C)C)cc1 | 1.58
19 | Cn1ccnc1CN1CCOCC(Cc2ccccn2)C1 (centres undefined) | -12.6
20 | Cc1ccccc1OCC1CCCN(c2cc(N)nc(N)n2)C1 (centres undefined) | -8.34
21 | CC(C)(C)c1n[nH]cc1CNCC1CCN(CC(F)(F)F)C1 (centres undefined) | -6.93
22 | Cc1nccc(N2C[C@@H](CN3CCCC3)[C@@H](CO)C2)n1 | -6.17
23 | Cc1ccc(CN2Cc3cnn(C)c3C(COCC3CC3)C2)o1 (centres undefined) | 2.56

Row | Compound | cytotoxicity at 70.5 h [%]
24 | CCS(=O)(=O)N1CCN(CCn2cccn2)c2nc(C)ccc2C1 | -2.39
25 | NC(=O)C1CCN(C(=O)NC2CCc3cc(F)ccc32)CC1 (centres undefined) | 2.63
26 | CS(=O)(=O)N1CCCC12CCCN(S(=O)(=O)c1ccc(F)c(F)c1)C2 (centres undefined) | 2.95
27 | Cc1ccc(CSCCn2nc3ccccn3c2=O)cc1 | -1.35
28 | O=c1cc2c(nn1CN1CCSCC1)CCC2 | -19.6
29 | CCCC(C#N)NC(=O)COC1CCCCC1 (centres undefined) | 6.33
30 | O=C(CN1CCS(=O)(=O)CC1)NC1CCCOc2ccccc21 (centres undefined) | -3.91
31 | Cc1oc(CN(C)C(=O)c2ccc(Br)cc2)cc1C(=O)O | -8.74
32 | Fc1ccc(OCCCN2CC(n3cccn3)C2)cc1 | -8.19
33 | Cc1noc(NC(=O)c2ccccc2)n1 | -5.17
34 | Cc1nnc(N2CCOC(CN(C)C)C2)c(C#N)c1C (centres undefined) | -6.93
35 | NC(=O)NC(CC(=O)NCCc1cccc(F)c1)c1ccccc1 (centres undefined) | -6.09
36 | O=C(c1cc(-n2cccn2)ccn1)N(CC(F)(F)F)C1CCCC1 | -2.14
37 | O=C(c1ccc2nccn2c1)N1CCC(CCn2cccn2)CC1 | -9.36
38 | COc1ccc(CN2C[C@@H]3OCC(=O)N(CC(N)=O)[C@@H]3C2)cc1 | 2.86
39 | CC(=O)N1CCC2(C=C(C(=O)NC3CC3)c3ccccc32)CC1 | -13.7
40 | CCn1ccnc1C1CCN(C(=O)C(O)c2ccc(OC)cc2)CC1 (centres undefined) | 4.82
41 | O=C(NCc1nc2cc(F)ccc2[nH]1)c1ccc[nH]1 | 17.9
42 | Fc1cccc(CN2CCC3(CCN3c3ncccn3)C2)c1 (centres undefined) | -8.53
43 | COc1cc(CNCc2c(C)nn(C)c2N(C)C)ccn1 | -1.56
44 | CN1CCCN(S(=O)(=O)c2cccc(C(=O)N3CCCCCC3)c2)CC1 | -7.86
45 | COCC(=O)NCCSCCOc1cccc(Br)c1 | 32
46 | Cc1nc(N2CCOCC2)nc2c1CN(CC(=O)N(C)C)CC2 | -13.5

Row | Compound | cytotoxicity at 70.5 h [%]
47 | CC(NC(=O)c1cccc(CN2CCN(C)CC2)c1)c1nccs1 (centres undefined) | 1.61
48 | CNS(=O)(=O)c1cc(C(=O)NC2CCOc3ccccc32)cc(C)c1C (centres undefined) | 8.79
49 | NCc1cccc(-c2cccnc2C(=O)NCCN2CCOCC2)c1 | -9.72
50 | CN1CC(c2ccccc2)CC12CCN(C(=O)c1ccncc1)CC2 (centres undefined) | -2.51
51 | COc1ccc(CCC(=O)NC2CCC(O)CC2)cc1OC (centres undefined) | -4.91
52 | O=C1COC2(CCN(Cc3cccs3)CC2)CN1c1ccsc1 | 1.63
53 | CCC1c2ccccc2CCN1CCCS(C)(=O)=O (centres undefined) | -3.06
54 | COCCOc1ccc(NC(=O)N(CC2CCOC2)C2CC2)cn1 (centres undefined) | -2.98
55 | O=C(C1CCOCC1)N1C[C@@H]2[C@@H](C1)OCC(=O)N2Cc1ccncc1 | -5.97
56 | CNc1ncc(CN(C)C(=O)c2c[nH]nc2-c2cccc(F)c2)cn1 | -6.7
57 | CN(CC1CCCO1)C1CCN(CCc2ccccn2)CC1 (centres undefined) | -6.95
58 | CCNCc1ccc(OCc2ccc3c(c2)OCCO3)cc1 | 22.5
59 | CC(C)OC(=O)N1CCC(Cc2cccc(C(N)=O)c2)C1 (centres undefined) | 35.3
60 | CC1(C)OCC2(CO1)CN(C(=O)c1cccc3ccccc13)C2 | -8.48
61 | COC[C@H](C)Nc1cc(C)c2ccc(SC)cc2n1 | -8
62 | O=C(NCCn1ccnc1)NCc1ccc(N2CCCCCC2)nc1 | -14.2
63 | Cc1nc(CCNC(=O)NCc2cccc(N(C)C)n2)cs1 | -12.8
64 | CCN(CC)S(=O)(=O)N1CCC(c2c(C(N)=O)sc3ccccc23)C1 (centres undefined) | -3.04
65 | O=C(c1ccoc1)N1CC[C@@H](N2CCOCC2)[C@@H]1Cc1ccccc1 | -10.9
66 | Cc1cc(C(=O)N2CCO[C@H]3[C@H](OCCN(C)C)CC[C@@H]32)c(C)[nH]1 | -9.02
67 | Cn1cc(CN2CC(C(=O)Nc3ccccc3)C3(CCOCC3)C2)cn1 (centres undefined) | -9.91
68 | O=C(NCCN1CCCCCC1=O)NCc1ccc(Cl)s1 | 2.1
69 | CCN1CCC(N[C@@H]2CC[C@@H]2NC(=O)Cc2csc(C)n2)CC1 | -1.08

Row | Compound | cytotoxicity at 70.5 h [%]
70 | CCOCCn1c(=O)n(CCC(C)C)c2ncc(C(=O)O)cc21 | 1.96
71 | O=c1[nH]nc2c(S(=O)(=O)N3CCCCCC3)cccn12 | -7.77
72 | O=C(NCCNc1ccc(C(F)(F)F)cn1)c1ccc(Br)cc1 | 1.55
73 | COCCC(Cc1cccc(Br)c1)C(=O)N(C)C (centres undefined) | -0.534
74 | COc1cc(F)c(NC(=O)N(C)Cc2cc(C)on2)cc1F | -5.99
75 | COc1cc(C)ccc1OCc1nc(C(=O)N2CCCNC(=O)C2)co1 | -5.88
76 | CN(Cc1ccccc1)c1cnn(CC2CCCCO2)c(=O)c1 (centres undefined) | -4.54
77 | CCC(C)NC(=O)c1ccc(-c2ccco2)[nH]c1=O (centres undefined) | -5.06
78 | COc1cc(CNCC2CN(C3CC3)CCO2)cc(OC)c1 (centres undefined) | -2.94
79 | CCC(C)(C)NC(=O)Cn1cc(C(N)=O)c(-c2ccccc2)n1 | -7.28
80 | CSc1cccc(CNC(=O)C2CC(=O)N(C3CC3)C2)c1 (centres undefined) | -1.83
81 | CCOCC1CN(C(=O)COc2ccccc2C)Cc2ncn(C)c21 (centres undefined) | -4.87
82 | O=C(C1CN(CC2CC2)CC12CCOCC2)N1CCOCC1 (centres undefined) | -1.96
83 | CCC(CNC(=O)c1ccc(Br)o1)N1CCc2ccccc2C1 (centres undefined) | -7.37
84 | Cc1noc(C)c1CN1Cc2cn(C)nc2C(COCC2CC2)C1 (centres undefined) | 14.4
85 | Cc1ccc(CN2C[C@H](OCCN(C)C)[C@H]3OCCC[C@H]32)o1 | 3.05
86 | CN(C)C(=O)N1C[C@@H]2CCCO[C@@H]2[C@H](N(C)Cc2ccco2)C1 | -11.5
87 | Cc1ccc(-n2ccnc2)c(C(=O)NCCOCC2CCCO2)c1 (centres undefined) | -1.48
88 | Cc1nn(C)c(C)c1C1CCCN1Cc1nc(-c2ccco2)no1 (centres undefined) | -19.8
89 | CCCn1cc(C(=O)N2CCOC(c3nc(-c4cccs4)no3)C2)cn1 (centres undefined) | -4.18
90 | CN(Cc1cnn(C)c1)C(=O)NC1CCN(Cc2ccccn2)CC1 | -11.3
91 | Cc1cccc(C)c1OC1CN(C(=O)C2CCN(C(=O)N(C)C)CC2)C1 | 29.8
92 | FC(F)C(F)(F)COCc1ncnn1-c1ccc2c(c1)OCO2 | 6.96

Row | Compound | cytotoxicity at 70.5 h [%]
93 | COc1cccc2c1OCC(NC(=O)NCCC(N)=O)C2 (centres undefined) | -7.75
94 | Cc1cncnc1C1CCN(C(=O)CN(C)C)CC1 | -8.84
95 | CC1(C)CN(C(CNS(N)(=O)=O)c2ccc(Cl)cc2)CCO1 (centres undefined) | -3.76
96 | CCC[C@@H]1CN(Cc2cnc(-c3cccs3)nc2)C[C@H]1C(=O)O | -0.697
97 | O=C(C1CCOCC1)N1CCCC1c1cncc(CN2CCCC2)n1 (centres undefined) | -0.0308
98 | Cc1noc(C(C)C)c1C(=O)N1CCC(n2cccn2)CC1 | 13.2
99 | Cn1ccnc1CN1CCC2(CC1)COC2 | -7.76
100 | OC[C@H]1CC[C@]2(CC1)CN(Cc1ccccn1)Cc1ccccc1O2 | -13.2
101 | COC(=O)c1sccc1S(=O)(=O)NCCC(O)c1ccco1 (centres undefined) | -8.35
102 | COc1ccc2c(=O)n(CC3CC3)ccc2c1OC | 2.47
103 | O=C([C@@H]1CCO[C@@H]2CCN(CC3CC3)C[C@H]21)N1CCCCO1 | 42.7
104 | O=C(Nc1ccc(-c2ccccc2)cn1)C1CCCN1C(=O)C1CC1 (centres undefined) | 5.65
105 | COCc1cc(CNC(=O)c2cccc3c2OCC3)n[nH]1 | -5.24
106 | Cc1ccc(C(C(=O)NCCc2nc(C)cc(=O)[nH]2)N(C)C)cc1 (centres undefined) | 7.05
107 | NCCC1CN(Cc2cnc3c(-c4ccccc4)cnn3c2)CCO1 (centres undefined) | -2.68
108 | O=S(=O)(Cc1ccc(F)cc1)NCc1ccco1 | -2.47
109 | COc1cc(C(=O)NCCS(=O)(=O)N(C)C)c2ccccc2n1 | 1.37
110 | Cc1ccc(-c2noc([C@@H]3C[C@H](NC(=O)NC(C)C)CN3C)n2)cc1 | -7.56
111 | CC1N(c2cnn(C)c2)C(=O)COC12CCN(c1ncccn1)CC2 (centres undefined) | -1.11
112 | CN(C)[C@@H]1CN(C(=O)c2cc3ccc(F)cc3[nH]2)C[C@H]1O | -2.24
113 | c1ccc(CCN2CCOC(Cn3cccn3)C2)nc1 (centres undefined) | -4.02
114 | Cc1c(F)cc(C(=O)O)cc1S(=O)(=O)Nc1cccc(C(F)F)c1 | -10.3
